“And” between values parts separate entries of the source, which are not always exact repeats. Identical values can stand only once. Inconclusive results and toxic doses are left out.

The values below come from PubChem BioAssay AID282 (DTP/NCI, 2004).

This assay relates to BDF1 mice, L1210 terephthalanilide-resistant leukemia ip, survival T/C. As to the kind of experiment: NCI In Vivo Anticancer Drug Screen. Data for tumor model L1210 Leukemia resistant to A Terephthalanilide; NSC 38280 (intraperitoneal) in B6D2F1 (BDF1) mice. Conditions: endpoint: mean survival time, higher = longer survival. How it is done: The antitumor activity of compounds was measured in mice bearing transplantable tumors. Survival or tumor size were measured and the results are expressed as the measurement made in the treated group (T) divided by the measurement made in the vehicle treated control group (C). The tumor model used in this assay is L1210 Leukemia resistant to A Terephthalanilide; NSC 38280 (intraperitoneal) in B6D2F1 (BDF1) mice

Setting [1] is: dose: 10.0 mg/kg/injection, schedule: Q01DX Z (ip), vehicle: carboxymethylcellulose (CMC).
Setting [2] is: dose: 12.5 mg/kg/injection, schedule: Q01DX010 (ip), vehicle: saline.
[3] abbreviates: dose: 25.0 mg/kg/injection, schedule: Q01DX010 (ip), vehicle: saline.
Setting [4] is: dose: 50.0 mg/kg/injection, schedule: Q01DX010 (ip), vehicle: saline.
Where [5] appears, read: dose: 100.0 mg/kg/injection, schedule: Q01DX010 (ip), vehicle: saline.
Where [6] appears, read: dose: 2.0 mg/kg/injection, schedule: Q01DX010 (ip), vehicle: saline.
Where [7] appears, read: dose: 125.0 micrograms/kg/injection, schedule: Q01DX010 (ip), vehicle: saline.
The mark [8] stands for this setting: dose: 25.0 mg/kg/injection, schedule: Q01DX Z (ip), vehicle: carboxymethylcellulose (CMC).
Setting [9] is: dose: 50.0 mg/kg/injection, schedule: Q01DX Z (ip), vehicle: carboxymethylcellulose (CMC).
[10] abbreviates: dose: 100.0 mg/kg/injection, schedule: Q01DX Z (ip), vehicle: carboxymethylcellulose (CMC).
[11] abbreviates: dose: 5.0 mg/kg/injection, schedule: Q01DX Z (ip), vehicle: carboxymethylcellulose (CMC).

Consider `CC(=O)Nc1ccc2nc3ccc(NC(C)=O)cc3[n+](-c3ccccc3)c2c1`, for which the T/C is 108 % of control under setting [1]; 107 % of control under setting [2]; 117 % of control (dose: 20.0 mg/kg/injection, schedule: Q01DX Z (ip), vehicle: carboxymethylcellulose (CMC)); 109 % of control and 110 % of control under setting [3]; 121 % of control and 104 % of control under setting [4]; 106 % of control and 112 % of control under setting [5]. Moreover, the T/C runs as follows: (dose: 150.0 mg/kg/injection, schedule: Q01DX Z (ip), vehicle: carboxymethylcellulose (CMC)) 121 % of control; (dose: 300.0 mg/kg/injection, schedule: Q01DX Z (ip), vehicle: carboxymethylcellulose (CMC)) 120 % of control; (dose: 400.0 mg/kg/injection, schedule: Q01DX Z (ip), vehicle: carboxymethylcellulose (CMC)) 91 % of control.

As to `Nc1nc(F)nc2c1ncn2C1OC(CO)C(O)C1O` (stereo not given), the T/C is 111 % of control (dose: 0.75 mg/kg/injection, schedule: Q01DX Z (ip), vehicle: saline); 108 % of control (dose: 1.5 mg/kg/injection, schedule: Q01DX Z (ip), vehicle: saline); 114 % of control (dose: 3.0 mg/kg/injection, schedule: Q01DX Z (ip), vehicle: saline); 101 % of control (dose: 6.0 mg/kg/injection, schedule: Q01DX Z (ip), vehicle: saline).

As to `CS(=O)(=O)OCCN(CCOS(C)(=O)=O)c1ccc(N=O)cc1`, the T/C is 122 % of control (dose: 0.5 mg/kg/injection, schedule: Q01DX010 (ip), vehicle: saline); 115 % of control (dose: 1.0 mg/kg/injection, schedule: Q01DX010 (ip), vehicle: saline); 98 % of control under setting [6]; 118 % of control under setting [7]; 116 % of control (dose: 1000.0 micrograms/kg/injection, schedule: Q01DX010 (ip), vehicle: saline).

Consider `O=c1c(O)cccc2cc(O)c(O)c(O)c12`, for which the T/C is 98 % of control under setting [3], 93 % of control under setting [4] and 89 % of control under setting [5].

For `CN(C)C(=S)N=Nc1c(O)[nH]c2ccccc12`, the T/C reads like this: under setting [8], 90 % of control; under setting [9], 98 % of control; under setting [10], 89 % of control.

Regarding `CC/C(=C(/CC)c1ccc(O)cc1)c1ccc(O)cc1`, the T/C is 96 % of control and 102 % of control (dose: 12.5 mg/kg/injection, schedule: Q01DX010 (sc), vehicle: steriod suspending solution); 89 % of control and 102 % of control (dose: 25.0 mg/kg/injection, schedule: Q01DX010 (sc), vehicle: steriod suspending solution); 102 % of control and 103 % of control (dose: 50.0 mg/kg/injection, schedule: Q01DX010 (sc), vehicle: steriod suspending solution); 96 % of control and 98 % of control (dose: 100.0 mg/kg/injection, schedule: Q01DX010 (sc), vehicle: steriod suspending solution).

Turning to `CCCCNc1ncnc2c1cnn2C`, the T/C is, setting by setting: (dose: 31.3 mg/kg/injection, schedule: Q01DX010 (ip), vehicle: saline) 100 % of control; (dose: 62.5 mg/kg/injection, schedule: Q01DX010 (ip), vehicle: saline) 105 % of control and 108 % of control; (dose: 125.0 mg/kg/injection, schedule: Q01DX010 (ip), vehicle: saline) 89 % of control.

Consider `CN(C)CC(=O)c1ccc(O)c(O)c1`, for which the T/C is, setting by setting: (dose: 134.0 mg/kg/injection, schedule: Q01DX010 (ip), vehicle: saline) 104 % of control; (dose: 135.0 mg/kg/injection, schedule: Q01DX010 (ip), vehicle: saline) 114 % of control; (dose: 200.0 mg/kg/injection, schedule: Q01DX010 (ip), vehicle: saline) 104 % of control and 105 % of control; (dose: 300.0 mg/kg/injection, schedule: Q01DX010 (ip), vehicle: saline) 120 % of control and 97 % of control; (dose: 450.0 mg/kg/injection, schedule: Q01DX010 (ip), vehicle: saline) 121 % of control and 110 % of control.

As to `O=C(O)CCCc1ccc(N(CCCl)CCCl)cc1`, the T/C is, setting by setting: (dose: 2.0 mg/kg/injection, schedule: Q01DX Z (ip), vehicle: carboxymethylcellulose (CMC)) 101 % of control; (dose: 3.0 mg/kg/injection, schedule: Q01DX Z (ip), vehicle: carboxymethylcellulose (CMC)) 106 % of control; (dose: 4.0 mg/kg/injection, schedule: Q01DX Z (ip), vehicle: carboxymethylcellulose (CMC)) 112 % of control; under setting [11], 119 % of control; (dose: 6.25 mg/kg/injection, schedule: Q01DX Z (ip), vehicle: carboxymethylcellulose (CMC)) 115 % of control; (dose: 12.5 mg/kg/injection, schedule: Q01DX Z (ip), vehicle: carboxymethylcellulose (CMC)) 118 % of control.

For the compound `Cn1c(O)c(N=NC(N)=S)c2ccccc21`, the T/C reads like this: under setting [8], 93 % of control; under setting [9], 90 % of control; under setting [10], 87 % of control; (dose: 200.0 mg/kg/injection, schedule: Q01DX Z (ip), vehicle: carboxymethylcellulose (CMC)) 89 % of control.

For `N=[N+]=CC(=O)OCC(N)C(=O)O` (stereo not given), the T/C reads like this: (dose: 1.0 mg/kg/injection, schedule: Q01DX Z (ip), vehicle: carboxymethylcellulose (CMC)) 122 % of control; (dose: 3.75 mg/kg/injection, schedule: Q01DX Z (ip), vehicle: carboxymethylcellulose (CMC)) 168 % of control; under setting [11], 171 % of control; (dose: 6.25 mg/kg/injection, schedule: Q01DX010 (ip), vehicle: saline) 156 % of control; (dose: 7.5 mg/kg/injection, schedule: Q01DX Z (ip), vehicle: carboxymethylcellulose (CMC)) 183 % of control; under setting [1], 174 % of control. Besides, the T/C runs as follows: under setting [2], 118 % of control; under setting [3], 97 % of control; (dose: 30.0 mg/kg/injection, schedule: Q01DX Z (ip), vehicle: carboxymethylcellulose (CMC)) 115 % of control.

Take `Nc1nc(N)c2nc(CNc3ccc(C(=O)NC(CCC(=O)O)C(=O)O)cc3)cnc2n1` (stereo not given): the T/C was 99 % of control and 109 % of control (dose: 0.03 mg/kg/injection, schedule: Q01DX010 (ip), vehicle: other); 123 % of control and 101 % of control (dose: 0.05 mg/kg/injection, schedule: Q01DX010 (ip), vehicle: other); 122 % of control and 124 % of control (dose: 0.1 mg/kg/injection, schedule: Q01DX010 (ip), vehicle: other).

With `CCN(CC)CCNc1ccc(C)c2sc3ccccc3c(=O)c12`, the T/C by setting is: under setting [3], 101 % of control and 105 % of control; (dose: 25.0 mg/kg/injection, schedule: Q01DX Z (ip), vehicle: water) 111 % of control; under setting [4], 105 % of control and 111 % of control; under setting [5], 111 % of control; (dose: 100.0 mg/kg/injection, schedule: Q01DX Z (ip), vehicle: water) 115 % of control.

For `CSCS(=O)C[C@H](CO)NC(=O)/C=C/c1c(C)[nH]c(=O)[nH]c1=O` (stereo not given in full), the T/C is 100 % of control (dose: 62.5 micrograms/kg/injection, schedule: Q01DX010 (ip), vehicle: saline); 100 % of control under setting [7]; 102 % of control (dose: 250.0 micrograms/kg/injection, schedule: Q01DX010 (ip), vehicle: saline); 102 % of control (dose: 500.0 micrograms/kg/injection, schedule: Q01DX010 (ip), vehicle: saline).

For `O=C(Nc1ccc(C2=NCCN2)cc1)c1ccc(C(=O)Nc2ccc(C3=NCCN3)cc2)cc1`, the T/C is 112 % of control and 115 % of control (dose: 4.0 mg/kg/injection, schedule: Q01DX010 (ip), vehicle: other); 123 % of control and 114 % of control (dose: 8.0 mg/kg/injection, schedule: Q01DX010 (ip), vehicle: other); 112 % of control and 117 % of control (dose: 16.0 mg/kg/injection, schedule: Q01DX010 (ip), vehicle: other); 114 % of control and 117 % of control (dose: 32.0 mg/kg/injection, schedule: Q01DX010 (ip), vehicle: other); 103 % of control and 110 % of control (dose: 64.0 mg/kg/injection, schedule: Q01DX010 (ip), vehicle: other).

`C=CC(CN1CC1)OC(C)=O` (stereo not given): the T/C under setting [6] is 101 % of control; the T/C (dose: 4.0 mg/kg/injection, schedule: Q01DX010 (ip), vehicle: saline) is 119 % of control; the T/C (dose: 16.0 mg/kg/injection, schedule: Q01DX010 (ip), vehicle: saline) is 114 % of control.
